Patent US9512107B2, “Therapeutically active compositions and their methods of use” (Agios Pharmaceuticals, Inc., priority 2012, dated 2016)
Positions count from the first letter of the chain named.

Legend:
[1] = tested on: U87MG pLVX-IDH2 R140Q-neo cells; test: U87MG pLVX-IDH2 R140Q-neo cell based assay, 2-HG in media by LC-MS at 48 hours; details: Homo sapiens, U-87 MG
In short: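 2-HG secreted into the medium was measured by LC-MS after 48 h of compound treatment (0.2% DMSO final) of U87MG pLVX-IDH2 R140Q-neo cells in DMEM/10% FBS. The same wells were assayed at 72 h by CellTiter-Glo luminescence for effects on growth.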

IDH2 R172K = target: T1, IDH2 R172K (Homo sapiens, UniProt P48735, R172K); test: IDH2 R172K enzymatic assay (NADPH cofactor depletion, diaphorase/resazurin readout); format: biochemical; details: read-out: Enz R172K
T1 sequence (P48735 40-452 R172K): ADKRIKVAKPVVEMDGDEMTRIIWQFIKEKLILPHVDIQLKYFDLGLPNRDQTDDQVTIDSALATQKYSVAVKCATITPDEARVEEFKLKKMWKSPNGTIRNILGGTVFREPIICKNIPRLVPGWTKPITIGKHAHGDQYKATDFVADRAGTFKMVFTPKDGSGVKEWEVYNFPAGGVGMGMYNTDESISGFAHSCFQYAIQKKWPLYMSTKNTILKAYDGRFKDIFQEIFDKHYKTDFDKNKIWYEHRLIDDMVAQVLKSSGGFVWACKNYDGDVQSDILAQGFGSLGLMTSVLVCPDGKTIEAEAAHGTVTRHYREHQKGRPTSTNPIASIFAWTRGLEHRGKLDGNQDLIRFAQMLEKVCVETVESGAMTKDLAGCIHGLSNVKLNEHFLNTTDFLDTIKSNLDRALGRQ
In short: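 Residual NADPH is read out as resorufin fluorescence after quenching with 36 μg/ml diaphorase and 60 μM resazurin in stop mix. The stop follows a 1 h room-temperature reaction started by a substrate mix of NADPH (50 μM) and α-KG (6.3 mM), with compound preincubated with enzyme for 1 h beforehand.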

IDH2 R140Q = target: T2, IDH2 R140Q (Homo sapiens, UniProt P48735, R140Q); test: IDH2 R140Q enzymatic assay (cofactor depletion, similar format); format: biochemical; details: read-out: Enz R140Q
T2 sequence (P48735 40-452 R140Q): T1 sequence (P48735 40-452 R172K) with R101Q, K133R

Compound | IC50 [1] [nM] | IC50 (IDH2 R172K) [nM] | IC50 (IDH2 R140Q) [nM]
CC(C)Nc1nc(Nc2ccccc2)nc(-c2cccc(Cl)n2)n1 [Compound 229, 6-(6-chloropyridin-2-yl)-N^2-isopropyl-N^4-phenyl-1,3,5-triazine-2,4-diamine] | < 100 | < 100 | < 100
CC(C)Nc1nc(Nc2ccccc2)nc(-c2ncccc2Cl)n1 [Compound 230, 6-(3-chloropyridin-2-yl)-N^2-isopropyl-N^4-phenyl-1,3,5-triazine-2,4-diamine] | 100 to 1000 | 100 to 1000 | 100 to 1000
c1ccc(-c2nc(Nc3ccncc3)nc(NC3CCOC3)n2)cc1 (stereo not drawn) [Compound 235, 6-phenyl-N^2-(pyridin-4-yl)-N^4-(tetrahydrofuran-3-yl)-1,3,5-triazine-2,4-diamine] | 100 to 1000 | 1000 to 10000 | 100 to 1000
c1ccc(-c2nc(Nc3ccncc3)nc(NC3COC3)n2)cc1 [Compound 236, N^2-(oxetan-3-yl)-6-phenyl-N^4-(pyridin-4-yl)-1,3,5-triazine-2,4-diamine] | 100 to 1000 | 1000 to 10000 | 100 to 1000
CC(C)Nc1nc(Nc2cccc(C#N)c2)nc(-c2ccccn2)n1 [Compound 246, 3-(4-(isopropylamino)-6-(pyridin-2-yl)-1,3,5-triazin-2-ylamino)benzonitrile] | < 100 | 100 to 1000 | 100 to 1000
CC(C)Nc1nc(Nc2ccccc2)nc(-c2cccc(C(F)(F)F)n2)n1 [Compound 247, N^2-isopropyl-N^4-phenyl-6-(6-(trifluoromethyl)pyridin-2-yl)-1,3,5-triazine-2,4-diamine] | < 100 | < 100 | < 100
CCCNc1nc(Nc2ccncc2)nc(-c2ccccc2)n1 [Compound 249, 6-phenyl-N^2-propyl-N^4-(pyridin-4-yl)-1,3,5-triazine-2,4-diamine] | 100 to 1000 | 100 to 1000 | < 100
c1ccc(-c2nc(NCC3CCC3)nc(Nc3ccncc3)n2)cc1 [Compound 250, N^2-(cyclobutylmethyl)-6-phenyl-N^4-(pyridin-4-yl)-1,3,5-triazine-2,4-diamine] | 100 to 1000 | 100 to 1000 | < 100
FC1(F)CC(Nc2nc(Nc3ccncc3)nc(-c3ccccc3)n2)C1 [Compound 253, N^2-(3,3-difluorocyclobutyl)-6-phenyl-N^4-(pyridin-4-yl)-1,3,5-triazine-2,4-diamine] | < 100 | 100 to 1000 | < 100
FC1(F)CCC(Nc2nc(Nc3ccncc3)nc(-c3ccccc3)n2)CC1 [Compound 254, N^2-(4,4-difluorocyclohexyl)-6-phenyl-N^4-(pyridin-4-yl)-1,3,5-triazine-2,4-diamine] | 100 to 1000 | 100 to 1000 | < 100
CC(Nc1nc(Nc2ccncc2)nc(-c2ccccc2)n1)C(C)(C)C (stereo not drawn) [Compound 255, N^2-(3,3-dimethylbutan-2-yl)-6-phenyl-N^4-(pyridin-4-yl)-1,3,5-triazine-2,4-diamine] | < 100 | 100 to 1000 | < 100
CC(Nc1nc(Nc2ccncc2)nc(-c2ccccc2)n1)C1CC1 (stereo not drawn) [Compound 257, N^2-(1-cyclopropylethyl)-6-phenyl-N^4-(pyridin-4-yl)-1,3,5-triazine-2,4-diamine] | 100 to 1000 | 100 to 1000 | < 100
CCCCNc1nc(Nc2ccnc(Cl)c2)nc(-c2ccccc2)n1 [Compound 260] | < 100 | < 100 | < 100
CCOCCNc1nc(Nc2ccncc2)nc(-c2ccccc2)n1 [Compound 262, N^2-(2-ethoxyethyl)-6-phenyl-N^4-(pyridin-4-yl)-1,3,5-triazine-2,4-diamine] | 100 to 1000 | 1000 to 10000 | 100 to 1000
FC(F)(F)CCNc1nc(Nc2ccncc2)nc(-c2ccccc2)n1 [Compound 263, 6-phenyl-N^2-(pyridin-4-yl)-N^4-(3,3,3-trifluoropropyl)-1,3,5-triazine-2,4-diamine] | 100 to 1000 | 1000 to 10000 | < 100

Second part, the compound after the results:

IC50 [1] [nM] | IC50 (IDH2 R172K) [nM] | IC50 (IDH2 R140Q) [nM] | Compound
100 to 1000 | 100 to 1000 | < 100 | O=C(Nc1nc(Nc2ccccc2)nc(-c2ccccc2)n1)OCC1CC1 [Compound 232, cyclopropylmethyl 4-phenyl-6-(phenylamino)-1,3,5-triazin-2-ylcarbamate]
< 100 | 100 to 1000 | < 100 | O=C(Nc1nc(Nc2ccccc2)nc(-c2ccccc2)n1)C1CC1 [Compound 233, N-(4-phenyl-6-(phenylamino)-1,3,5-triazin-2-yl)cyclopropanecarboxamide]
100 to 1000 | 1000 to 10000 | 100 to 1000 | c1ccc(Nc2nc(NCC3CCO3)nc(-c3ccccc3)n2)cc1 (stereo not drawn) [Compound 237, N^2-(oxetan-2-ylmethyl)-N^4,6-diphenyl-1,3,5-triazine-2,4-diamine]
100 to 1000 | 1000 to 10000 | 100 to 1000 | OCCNc1nc(Nc2ccccc2)nc(-c2ccccc2)n1 [Compound 238, 2-(4-phenyl-6-(phenylamino)-1,3,5-triazin-2-ylamino)ethanol]
< 100 | 100 to 1000 | < 100 | CC(C)(CO)CNc1nc(Nc2ccccc2)nc(-c2ccccc2)n1 [Compound 239, 2,2-dimethyl-3-(4-phenyl-6-(phenylamino)-1,3,5-triazin-2-ylamino)propan-1-ol]
100 to 1000 | 1000 to 10000 | < 100 | CC(O)CNc1nc(Nc2ccccc2)nc(-c2ccccc2)n1 (stereo not drawn) [Compound 240, 1-(4-phenyl-6-(phenylamino)-1,3,5-triazin-2-ylamino)propan-2-ol]
100 to 1000 | 1000 to 10000 | < 100 | CC(CO)Nc1nc(Nc2ccccc2)nc(-c2ccccc2)n1 (stereo not drawn) [Compound 241, 2-(4-phenyl-6-(phenylamino)-1,3,5-triazin-2-ylamino)propan-1-ol]
100 to 1000 | 1000 to 10000 | 100 to 1000 | CC(C)C(CO)Nc1nc(Nc2ccccc2)nc(-c2ccccc2)n1 (stereo not drawn) [Compound 242, 3-methyl-2-(4-phenyl-6-(phenylamino)-1,3,5-triazin-2-ylamino)butan-1-ol]
1000 to 10000 | 100 to 1000 | 100 to 1000 | CC(C)OCC(=O)Nc1nc(Nc2ccccc2)nc(-c2ccccc2)n1 [Compound 244, 2-isopropoxy-N-(4-phenyl-6-(phenylamino)-1,3,5-triazin-2-yl)acetamide]
100 to 1000 | 100 to 1000 | < 100 | CC1(C(=O)Nc2nc(Nc3ccccc3)nc(-c3ccccc3)n2)CC1 [Compound 245]
100 to 1000 | 1000 to 10000 | < 100 | CCNc1nc(Nc2ccncc2)nc(-c2ccccc2)n1 [Compound 248, N^2-ethyl-6-phenyl-N^4-(pyridin-4-yl)-1,3,5-triazine-2,4-diamine]
100 to 1000 | > 10000 | 100 to 1000 | CC(C)(CO)CNc1nc(Nc2ccncc2)nc(-c2ccccc2)n1 [Compound 259, 2,2-dimethyl-3-(4-phenyl-6-(pyridin-4-ylamino)-1,3,5-triazin-2-ylamino)propan-1-ol]
< 100 | 100 to 1000 | < 100 | CC(C)(CO)CNc1nc(Nc2ccnc(Cl)c2)nc(-c2ccccc2)n1 [Compound 261]
